The values below come from patent publication US20210130420A1, “RECOMBINANT BINDING PROTEINS TARGETING HER2 AND SERUM ALBUMIN, AND THEIR USES” (Molecular Partners AG, priority 2016, published 2021).

Where two headings read alike, the source gives them in different places.

The subject of one data set is BT474 cells. Briefly: BT474 cell proliferation, BrdU-labeling. It is filed as cell-based, human. The following applies: Homo sapiens, BT-474, read-out: cell proliferation inhibition constant IC50, BT474. How it is done:
Protein #21-His and Protein #23-His, were expressed and purified as described in Example 1. Effects of the recombinant binding proteins on BT474 cell proliferation were determined by measuring DNA synthesis using BrdU-labeling (BrdU, Cell Proliferation ELISA, Roche). Briefly, 10000 BT474 cells were seeded per well in a 96 well plate in 100 ul complete medium and incubated for 24 hours. Recombinant binding proteins or controls were added for an additional 72 hours. BrdU for cell labeling was added for the last 24 hours. Labeled (proliferating) cells were detected according to the manufactures protocol. The data were analyzed using the GraphPad prism software, plotting log [c] on the x-axis against OD450-602 nm on the y-axis. Data were fitted using a non-linear regression fit (log(antagonist) vs. response—Variable slope (four parameters)) deriving IC50 values.
Protein #21 and Protein #21-His were expressed and purified as described in Example 1. Standard BrdU cell proliferation assays were performed, well-known to the person skilled in the art. Briefly, effects on cell proliferation of Protein #21-His, other compounds, or Protein #21-His in combination with other compounds, were determined by measuring DNA synthesis using BrdU-labeling (BrdU, Cell Proliferation ELISA, Roche). Briefly, 10000 cells were seeded per well in a 96 well plate in 100 μl complete medium and incubated for 24 hours. Protein #21-His and/or compounds were added for an additional 72 hours. BrdU for cell labeling was added for the last 24 hours. Labeled (proliferating) cells were detected according to the manufactures protocol. The data were analyzed using the Graph Pad prism software (log [c] vs. OD450-602 nm plot). Data were fitted using a non-linear regression fit (log(antagonist) vs. response—variable slope (four parameters)).

A short description of data set [1]: Pharmacokinetic analysis in mouse. The format is in vivo. On the procedure:
The measurements shown in this example are the result of a half-life engineering effort as described in Example 11. Protein #21-His and Protein #23-His were expressed and purified as described in Example 1. The pharmacokinetic properties of the His-tagged proteins were assessed in mouse as described elsewhere (Zahnd, C., Kawe, M., Stumpp, M. T., de Pasquale, C., Tamaskovic, R., Nagy-Davidescu, G., Dreier, B., Schibli, R., Binz, H. K., Waibel, R., Plückthun, A., Cancer Res. 70, 1595-1605, 2010). […] Having SEQ ID NO: 16 present in the recombinant binding protein thus appears to be more favorable than having SEQ ID NO: 18 present.
Polypeptide linkers that link protein domains are well-known to the person skilled in the art. Gly-Ser-rich linkers are well-known from single-chain Fv antibody fragments, where they have proven to be most appropriate to link the two Fv polypeptide chains. […] Protein #26-His and Protein #27-His, were expressed and purified as described in Example 1. Pharmacokinetic analyses in mouse were performed as described in Example 8.
For the studies in this example Protein #21-His, Protein #24-His, Protein #28-His, Protein #29-His, and Protein #30-His were prepared according to Example 1. Protein #28-His was additionally PEGylated using a 40 kDa PEG moiety (NOF Sunbright GL2-400MA) by maleimid coupling of the PEG-moiety onto the free C-terminal cysteine of Protein #28-His, followed by purification to homogeneity using standard purification methods, procedures well known to the person skilled in the art. Pharmacokinetic analyses in mouse or cynomolgus monkey were performed as described in Examples 8 and 9.

Data set [2] in a line: Storage stability in PBS analysed by SDS-PAGE. The following applies: for degradation upon prolonged incubation: in PBS at 10 mg/ml at 40° C. It is filed as physicochemical. On the procedure:
“Improved storage stability” in the context of the present invention means the reduction of the amounts of a degradation band, preferably the reduction of the amount of degradation products, as detected by a Coomassie-stained SDS-PAGE occurring after storage at 40° C. for 1 month at 10 mg/ml in PBS, by at least 5%, 10%, 15%, 20%, 25%, 30%, 35%, 40%, 45%, 50%, or 50%. Methods to assess storage stability by SDS-PAGE are well known to the person skilled in the art. Examples of designed ankyrin repeat domains and recombinant binding proteins with improved storage stability properties are given in Examples 2 and 3.
Protein #13-His, Protein #14-His and Protein #15-His were prepared as described in Example 1, and samples were concentrated to 10 mg/ml in PBS. Protein #14-His and Protein #15-His where then stored for 1 month at −80° C. or at 40° C. in glass vials, followed by analysis on SDS 15% PAGE. […] These findings illustrate that Protein #14-His has improved storage stability compared to Proteins #13-His and Protein #15-His.
A storage stability improvement is also observed, when testing the storage stability of Protein #21 and Protein #22 (recombinant binding proteins consisting of the amino acid sequences corresponding to SEQ ID NOs: 21 and 22, respectively). Protein #21 and Protein #22 are prepared as described in Example 1, samples are concentrated to 10 mg/ml in PBS and stored for 1 month at −80° C. in or at 40° C. in glass vials, followed by analysis on standard size-exclusion chromatography.

The mark [3] stands for this setting: compound titrated alone or with Protein #21 at 2 nM.
Setting [4] is: Protein #21 was titrated, Trametinib (10^−5 M), Cobimetinib (10^−5 M) or Salirasib (3*10^−5 M).

Turning to `CC(=O)c1c(C)c2cnc(Nc3ccc(N4CCNCC4)cn3)nc2n(C2CCCC2)c1=O` [Palbociclib], the IC50 with BT474 cells (setting [3]) came to 2.6 µM.
`Cc1c(CN2CCN(C(=O)[C@H](C)O)CC2)sc2c(N3CCOCC3)nc(-c3cnc(N)nc3)nc12` [Apitolisib]: the IC50 in the data set on BT474 cells (setting [3]) came out at 0.204 µM.
For `Cc1nc(-c2cn3c(n2)-c2ccc(-c4cnn(C(C)(C)C(N)=O)c4)cc2OCC3)n(C(C)C)n1` [Taselisib], in the data set with BT474 cells (setting [3]), the IC50 came to 0.105 µM.
The same measure, in the same setting: in the case of `Cc1nc(NC(=O)N2CCC[C@H]2C(N)=O)sc1-c1ccnc(C(C)(C)C(F)(F)F)c1` [Alpelisib] it was 2.54 µM.
Regarding `CC(=O)Nc1cccc(-n2c(=O)n(C3CC3)c(=O)c3c(Nc4ccc(I)cc4F)n(C)c(=O)c(C)c32)c1` [Trametinib], the IC50 in the data set on BT474 cells (setting [4]) was 0.00104 µM.
For `CC(C)=CCC/C(C)=C/CC/C(C)=C/CSc1ccccc1C(=O)O` [Salirasib], the IC50 with BT474 cells (setting [4]) is 0.00094 µM.
Take `O=C(c1ccc(F)c(F)c1Nc1ccc(I)cc1F)N1CC(O)([C@@H]2CCCCN2)C1` [Cobimetinib]: in the data set on BT474 cells (setting [4]), the IC50 was found to be 0.00102 µM.

B1: Protein #30-His: SEQ ID NO: 30 with a His-tag (SEQ ID NO: 1) fused to its N terminus (protein)
chain: MRGSHHHHHHGSDLGKKLLEAARAGQDDEVRILMANGADVNAKDYFSHTPLHLAARNGHLKIVEVLLKAGADVNAKDFAGKTPLHLAANDGHLEIVEVLLKHGADVNAQDIFGKTPADIAADAGHEDIAEVLQKAAGGGGSGGGGSGGGGSGGGGSGSDLGKKLLEAARAGQDDEVRILMANGADVNAKDYFSHTPLHLAARNGHLKIVEVLLKAGADVNAKDFAGKTPLHLAANDGHLEIVEVLLKHGADVNAQDIFGKTPADIAADAGHEDIAEVLQKAAGGGGSGGGGSGGGGSGGGGSGSDLGAKLLSDLGVKLLWAAARGQDDEVRILLAAGADVNAKDFQGITPLHIAAQSGHLEIVEVLLKAGADVNAKDVTGDTPLHLAAQHGHLVIVEVLLKAGADVNAQDERGWTPADLAADWGHEDIAEVLQKAAGGGGSGGGGSGSDLGKKLLEAARAGQDDEVRILMANGADVNAKDEYGLTPLYLATAHGHLEIVEVLLKNGADVNAVDAIGFTPLHLAAFIGHLEIAEVLLKHGADVNAQDKFGKTAFDISIGNGNEDLAEILQKAA
modifications: His-tag; Protein comprising four designed ankyrin repeat domains
For B1, in data set [1] (Protein #30-His compared to Protein #29-His, FIG. 5B), the “mouse pharmacokinetic profile, two versus one serum albumin binding domain” value is “benefit of having two designed ankyrin repeat domains with binding specificity for serum albumin”.

B2: Protein #26-His: SEQ ID NO: 26 with a His-tag (SEQ ID NO: 1) fused to its N terminus (protein)
chain: MRGSHHHHHHGSDLGKKLLEAARAGQDDEVRILMANGADVNAKDYFSHTPLHLAARNGHLKIVEVLLKAGADVNAKDFAGKTPLHLAANDGHLEIVEVLLKHGADVNAQDIFGKTPADIAADAGHEDIAEVLQKAAGGGGSGGGGSGGGGSGGGGSGSDLGAKLLSDLGVKLLWAAARGQDDEVRILLAAGADVNAKDFQGITPLHIAAQSGHLEIVEVLLKAGADVNAKDVTGDTPLHLAAQHGHLVIVEVLLKAGADVNAQDERGWTPADLAADWGHEDIAEVLQKAAGGGGSGGGGSGSDLGKKLLEAARAGQDDEVRILMANGADVNAKDEYGLTPLYLATAHGHLEIVEVLLKNGADVNAVDAIGFTPLHLAAFIGHLEIAEVLLKHGADVNAQDKFGKTAFDISIGNGNEDLAEILQKAAGGGGSGGGGSGGGGSGGGGSGSDLGKKLLEAARAGQDDEVRILMANGADVNAKDYFSHTPLHLAARNGHLKIVEVLLKAGADVNAKDFAGKTPLHLAANDGHLEIVEVLLKHGADVNAQDIFGKTPADIAADAGHEDIAEVLQKAA
modifications: His-tag; Protein comprising four designed ankyrin repeat domains
In the case of B2, the “injected dose remaining 48 hours after intravenous injection” value in data set [1] was 5.3%.

B3: Protein #27-His: SEQ ID NO: 27 with a His-tag (SEQ ID NO: 1) fused to its N terminus (protein)
chain: MRGSHHHHHHGSDLGKKLLEAARAGQDDEVRILMANGADVNAKDYFSHTPLHLAARNGHLKIVEVLLKAGADVNAKDFAGKTPLHLAANDGHLEIVEVLLKHGADVNAQDIFGKTPADIAADAGHEDIAEVLQKAAGSPTPTPTTPTPTPTTPTPTPTGSDLGAKLLSDLGVKLLWAAARGQDDEVRILLAAGADVNAKDFQGITPLHIAAQSGHLEIVEVLLKAGADVNAKDVTGDTPLHLAAQHGHLVIVEVLLKAGADVNAQDERGWTPADLAADWGHEDIAEVLQKAAGSPTPTPTTPTPTPTTPTPTPTGSDLGKKLLEAARAGQDDEVRILMANGADVNAKDEYGLTPLYLATAHGHLEIVEVLLKNGADVNAVDAIGFTPLHLAAFIGHLEIAEVLLKHGADVNAQDKFGKTAFDISIGNGNEDLAEILQKAAGSPTPTPTTPTPTPTTPTPTPTGSDLGKKLLEAARAGQDDEVRILMANGADVNAKDYFSHTPLHLAARNGHLKIVEVLLKAGADVNAKDFAGKTPLHLAANDGHLEIVEVLLKHGADVNAQDIFGKTPADIAADAGHEDIAEVLQKAA
modifications: His-tag; Protein comprising four designed ankyrin repeat domains
For the molecule B3, in data set [1], the “injected dose remaining 48 hours after intravenous injection” value was found to be 7% and the “terminal half-life, comparison” value was “longer terminal half-life than Protein #26-His”.

B4: Protein #12-His: SEQ ID NO: 12 with a His-tag; designed ankyrin repeat domain with binding specificity for serum albumin (WO2012/069654) (protein)
chain: GSDLGKKLLEAARAGQDDEVRILLKAGADVNAKDYFSHTPLHLAARNGHLKIVEVLLKAGADVNAKDFAGKTPLHLAANDGHLEIVEVLLKAGADVNAQDIFGKTPADIAADAGHEDIAEVLQKAA
modifications: His-tag; Designed ankyrin repeat domain
For the molecule B4, the “degradation upon prolonged incubation” value in data set [2] was “degrade”.

B5: Protein #15-His: SEQ ID NO: 15 with a His-tag; designed ankyrin repeat domain with binding specificity for serum albumin (WO2012/069654) (protein)
chain: GSDLGKKLLEAARAGQDDEVRILMANGADVNAKDYFSHTPLHLAARNGHLKIVEVLLKAGADVNAKDFAGKTPLHLAANDGHLEIVEVLLKHGADVNAQDIFGKTPADIAADAGHEDIAEVLQKAA
modifications: His-tag; Designed ankyrin repeat domain
Consider B5, for which the “stability upon storage at −80° C.” value in data set [2] (10 mg/ml in PBS, 1 month at −80° C., SDS 15% PAGE) is listed as “equivalent stability”. For the same molecule, the “degradation upon prolonged incubation” value in data set [2] is “degrade”.
